Assay results taken from US8883963B2 (Cadila Healthcare Limited, priority 2007, dated 2014).
Non-standard residues stand in square brackets, D forms with d. Residues, ends and D or L forms follow the SMILES beside them. ξ: configuration not given here. ξBip(2'-Et-4'-OMe) = CCc1cc(OC)ccc1-c1ccc(CC(N)C(=O)O)cc1; ξNva(5-(3-Cl-Ph)) = NC(CCCc1cccc(Cl)c1)C(=O)O

Assays:
[1] = system: C57BL/6J mice (mild hyperglycemic); assay: In vivo glucose reduction, acute single dose 120-min time-course, oral route; parameters: species or system mouse; unit not given here; details: male C57BL/6J mice
Protocol: Acute single dose 120-min time-course experiments were carried out in male C57BL/6J or db/db mice, age 8-12 weeks, bred in-house. Animals were housed in groups of 6 animals per cage, for a week, in order to habituate them to vivarium conditions (25±4° C., 60-65% relative humidity, 12:12 h light:dark cycle, with lights on at 7.30 am). All the animal experiments were carried out according to the internationally valid guidelines following approval by the ‘Zydus Research Center animal ethical committee’.
Two days prior to the study, the animals were randomised and divided into 5 groups (n=6), based upon their fed glucose levels. On the day of experiment, food was withdrawn from all the cages, water was given ad-libitum and were kept for overnight fasting. Vehicle (normal saline)/test/standard compounds were administered intraperitoneally (i.p.) or orally, on a body weight basis. Soon after the 0 min. blood collection from each animal, the subsequent blood collections were done at 30, 60 and 120 or up to 240 min., via retro-orbital route, under light ether anesthesia (Chen, D., et al., Diabetes Obesity Metabolism, 2005, 7, 307. Kim, J. G. et al., Diabetes, 2003, 52, 751).
(§1) Blood samples were centrifuged and the separated serum was immediately subjected for the glucose estimation. Serum for insulin estimation was stored at −70° C. until used for the insulin estimation. The glucose estimation was carried out with DPEC-GOD/POD method (Ranbaxy Fine Chemicals Limited, Diagnostic division, India), using Spectramax-190, in 96-microwell plate reader (Molecular devices Corporation, Sunnyvale, Calif.). […] The AUC and BCAUC obtained from graphs were analyzed for one way ANOVA, followed by Dunnett's post test, using Graph Pad prism software. Furthermore, the insulin estimation was carried out using rat/mouse insulin ELISA kit (Linco research, Missouri USA). Changes in the blood glucose levels, at 0, 30, 60 and 120 min, with selected peptidomimetics are shown in Table 7 (via ip route of administration) and Table 8 (via oral route of administration) respectively.

[2] = system: C57BL/6J mice (mild hyperglycemic); assay: In vivo glucose reduction, acute single dose 120-min time-course, i.p. route; parameters: species or system mouse; unit not given here; details: male C57BL/6J mice
Protocol: All the animal experiments were carried out according to the internationally valid guidelines following approval by the ‘Zydus Research Center animal ethical committee’.
Two days prior to the study, the animals were randomised and divided into 5 groups (n=6), based upon their fed glucose levels. On the day of experiment, food was withdrawn from all the cages, water was given ad-libitum and were kept for overnight fasting. Vehicle (normal saline)/test/standard compounds were administered intraperitoneally (i.p.) or orally, on a body weight basis.
as §1, with “USA).” for “USA). Changes in the blood glucose levels, at 0, 30, 60 and 120 min, with selected peptidomimetics are shown in Table 7 (via ip route of administration) and Table 8 (via oral route of administration) respectively.”

Row | SMILES | blood glucose levels ([1]; 2 μM/kg oral, 0 min) | blood glucose levels ([1]; 2 μM/kg oral, 30 min) | blood glucose levels ([1]; 2 μM/kg oral, 60 min) | blood glucose levels ([1]; 2 μM/kg oral, 120 min) | blood glucose levels ([2]; 30 nM/kg i.p., 0 min) | blood glucose levels ([2]; 30 nM/kg i.p., 30 min) | blood glucose levels ([2]; 30 nM/kg i.p., 60 min) | blood glucose levels ([2]; 30 nM/kg i.p., 120 min) | blood glucose levels ([2]; 10 nM/kg i.p., 0 min) | blood glucose levels ([2]; 10 nM/kg i.p., 30 min) | blood glucose levels ([2]; 10 nM/kg i.p., 60 min) | blood glucose levels ([2]; 10 nM/kg i.p., 120 min) | blood glucose levels ([2]; 20 nM/kg i.p., 0 min) | blood glucose levels ([2]; 20 nM/kg i.p., 30 min) | blood glucose levels ([2]; 20 nM/kg i.p., 60 min) | blood glucose levels ([2]; 20 nM/kg i.p., 120 min) | blood glucose levels ([1]; 1.5 μM/kg oral, 0 min) | blood glucose levels ([1]; 1.5 μM/kg oral, 30 min) | blood glucose levels ([1]; 1.5 μM/kg oral, 60 min) | blood glucose levels ([1]; 1.5 μM/kg oral, 120 min)
1 | CCc1cc(OC)ccc1-c1ccc(CC(NC(=O)[C@H](CC(=O)O)NC(=O)[C@H](CO)NC(=O)[C@@H](NC(=O)C(C)(Cc2ccccc2F)NC(=O)[C@@H](NC(=O)CNC(=O)C(CCC#N)NC(=O)C(C)(C)NC(=O)[C@@H](N)Cc2c[nH]cn2)[C@H](C)O)[C@H](C)O)C(=O)N(C)C(CCCc2ccccc2)C(N)=O)cc1 (single isomer, unassigned) [Seq. ID. 130] | 183 ± 2.4 | 116 ± 3.1 | 112 ± 4.8 | 110 ± 2.5 | 181 ± 5.2 | 119 ± 2.6 | 117 ± 2.1 | 119 ± 2.3 |  |  |  |  |  |  |  |  |  |  |  | 
2 | CCc1cc(OC)ccc1-c1ccc(CC(NC(=O)[C@H](CC(=O)O)NC(=O)[C@H](CO)NC(=O)[C@@H](NC(=O)[C@H](Cc2ccccc2)NC(=O)[C@@H](NC(=O)CNC(=O)C(CCC#N)NC(=O)C(C)(C)NC(=O)[C@@H](N)Cc2c[nH]cn2)[C@@H](C)O)[C@@H](C)O)C(=O)NC(CCCc2ccc(OC)cc2Cl)C(N)=O)cc1 (single isomer, unassigned) [Seq. ID. 84] | 183 ± 2.4 | 116 ± 3.1 | 112 ± 4.8 | 110 ± 2.5 |  |  |  |  | 182 ± 2.3 | 110 ± 2.3 | 112 ± 3.0 | 112 ± 1.9 |  |  |  |  |  |  |  | 
3 | CCc1cc(OC)ccc1-c1ccc(CC(NC(=O)[C@H](CC(=O)O)NC(=O)[C@H](CO)NC(=O)[C@@H](NC(=O)C(C)(Cc2ccccc2F)NC(=O)[C@@H](NC(=O)CNC(=O)[C@H](CC(C(F)(F)F)C(F)(F)F)NC(=O)C(C)(C)NC(=O)[C@@H](N)Cc2c[nH]cn2)[C@@H](C)O)[C@H](C)O)C(=O)NC(CCCc2ccccc2)C(N)=O)cc1 (single isomer, unassigned) [Seq. ID. 225] | 183 ± 2.3 | 119 ± 3.0 | 112 ± 4.3 | 109 ± 2.6 |  |  |  |  | 184 ± 5.0 | 122 ± 3.8 | 128 ± 2.1 | 149 ± 2.3 |  |  |  |  |  |  |  | 
4 | CCc1cc(OC)ccc1-c1ccc(CC(NC(=O)[C@H](CC(=O)O)NC(=O)[C@H](CO)NC(=O)[C@@H](NC(=O)[C@H](Cc2ccccc2)NC(=O)[C@@H](NC(=O)CNC(=O)[C@H](CCC(N)=O)NC(=O)[C@H](C)NC(=O)[C@@H](N)Cc2c[nH]cn2)[C@@H](C)O)[C@@H](C)O)C(=O)NC(CCCc2cccc(Cl)c2)C(N)=O)cc1 (stereo partly drawn) [Seq. ID. 15] (H-HAQGTFTSD[ξBip(2'-Et-4'-OMe)][ξNva(5-(3-Cl-Ph))]-NH2) | 183 ± 2.4 | 116 ± 3.1 | 112 ± 4.8 | 110 ± 2.5 | 180 ± 3.2 | 119 ± 3.2 | 117 ± 3.1 | 118 ± 1.8 |  |  |  |  |  |  |  |  |  |  |  | 
5 | CCc1cc(OC)ccc1-c1ccc(CC(C(=O)N(C)C(CCCc2ccccc2)C(N)=O)N(C)C(=O)[C@H](CC(=O)O)N(C)C(=O)[C@H](CO)NC(=O)[C@@H](NC(=O)C(C)(Cc2ccccc2F)NC(=O)[C@@H](NC(=O)CNC(=O)C(CCC#N)NC(=O)C(C)(C)NC(=O)[C@@H](N)Cc2c[nH]cn2)[C@H](C)O)[C@H](C)O)cc1 (single isomer, unassigned) [Seq. ID. 154] | 181 ± 2.5 | 117 ± 3.3 | 112 ± 4.0 | 108 ± 2.9 | 181 ± 4.1 | 117 ± 3.8 | 117 ± 3.0 | 117 ± 1.6 |  |  |  |  |  |  |  |  |  |  |  | 
6 | CCc1cc(OC)ccc1-c1ccc(CC(CNC(CCCc2ccccc2)C(N)=O)NC(=O)[C@H](CC(=O)O)NC(=O)[C@H](CO)NC(=O)[C@@H](NC(=O)C(C)(Cc2ccccc2F)NC(=O)[C@@H](NC(=O)CNC(=O)C(CCC#N)NC(=O)C(C)(C)NC(=O)[C@@H](N)Cc2c[nH]cn2)[C@H](C)O)[C@H](C)O)cc1 (single isomer, unassigned) [Seq. ID. 190] | 183 ± 2.1 | 118 ± 3.4 | 113 ± 4.6 | 111 ± 2.8 |  |  |  |  | 182 ± 2.1 | 121 ± 2.9 | 130 ± 3.1 | 138 ± 2.4 |  |  |  |  |  |  |  | 
7 | CCc1cc(OC)ccc1-c1ccc(CC(NC(=O)[C@H](CC(=O)O)NC(=O)[C@H](CO)NC(=O)[C@@H](NC(=O)[C@H](Cc2ccccc2)NC(=O)[C@@H](NC(=O)CNC(=O)C(CCC#N)NC(=O)C(C)(C)NC(=O)[C@@H](N)Cc2c[nH]cn2)[C@@H](C)O)[C@@H](C)O)C(=O)NC(CCCc2ccccc2F)C(N)=O)cc1 (single isomer, unassigned) [Seq. ID. 77] | 183 ± 2.1 | 118 ± 3.4 | 113 ± 4.6 | 111 ± 2.8 |  |  |  |  |  |  |  |  | 183 ± 4.9 | 120 ± 2.8 | 129 ± 3.0 | 139 ± 2.0 |  |  |  | 
8 | CCc1cc(OC)ccc1-c1ccc(CC(NC(=O)[C@H](CC(=O)O)NC(=O)[C@H](CO)NC(=O)[C@@H](NC(=O)C(C)(Cc2ccccc2F)NC(=O)[C@@H](NC(=O)CNC(=O)C(CCC#N)NC(=O)C(C)(C)NC(=O)[C@@H](N)Cc2c[nH]cn2)[C@@H](C)O)[C@H](C)O)C(=O)NC(CCCc2ccccc2F)C(N)=O)cc1 (single isomer, unassigned) [Seq. ID. 120] | 184 ± 2.5 | 115 ± 1.6 | 113 ± 3.2 | 110 ± 2.4 | 182 ± 5.1 | 118 ± 2.1 | 116 ± 2.2 | 118 ± 2.4 |  |  |  |  |  |  |  |  |  |  |  | 
9 | CCc1cc(OC)ccc1-c1ccc(CC(NC(=O)[C@H](CC(=O)O)NC(=O)[C@H](CO)NC(=O)[C@@H](NC(=O)C(C)(Cc2ccccc2F)NC(=O)[C@@H](NC(=O)CNC(=O)C(CCC#N)NC(=O)C(C)(C)NC(=O)[C@@H](N)Cc2c[nH]cn2)[C@H](C)O)[C@H](C)O)C(=S)NC(CCCc2ccccc2F)C(N)=O)cc1 (single isomer, unassigned) [Seq. ID. 168] |  |  |  |  |  |  |  |  |  |  |  |  | 182 ± 3.3 | 120 ± 3.6 | 127 ± 3.4 | 145 ± 2.1 | 183 ± 2.0 | 117 ± 1.1 | 112 ± 1.1 | 110 ± 1.8
